Reference: publication PMC6274259, “New 3-Cyano-2-Substituted Pyridines Induce Apoptosis in MCF 7 Breast Cancer Cells” (Molecules, 2016)

Assays:
MCF-7 cells = experiment: Morphological examination of MCF-7 cells; type: cell-based, human; details: 24 h
Protocol: The morphological changes in MCF-7 cells were followed up after treatment with different concentrations of compound 9a (0.05, 0.1, 0.5, 2, 5 and 10 μM) for 24 h. […] Untreated cells were used as a negative control.
Morphological examination was performed as described previously; MCF-7 cells were plated on 96 well plates using 5 × 10^4 cells/well and allowed to reach 75%–85% confluence. The compounds were added to the medium, untreated cells were used as negative control, in addition to blank cells (medium) and vehicle which consist of (DMSO 0.4% + cells). After treatment, all the cells were incubated for 24 h in an atmosphere containing 5% CO2. After […] of treatment, the morphological changes of the cells were examined and photographs were taken using an inverted microscope at 400× magnification.

[1] = system: HCT-116 human colon carcinoma cell line; experiment: WST-1 cell viability assay, HCT-116; type: cell-based; details: Homo sapiens, HCT-116; WST-1, 24 h treatment, mean ± S.D of three independent experiments
From the text: (§1) The synthesized compounds were screened for their cytotoxicity on five cancer cell lines, namely SK-OV-3, MCF-7, MDA-MB-231, HCT-116 and RKO, using a WST colorimetric assay. The assay principle is based upon the reduction of the tetrazolium salt WST-1 to formazan by cellular mitochondrial dehydrogenases present in viable cells. […] Among the latter compounds the benzohydrazide derivative 9a emerged with the lowest IC50 in this study against MCF-7 cells compared to 5-FU. […] Based on the fact that 9a had less cytotoxic effects on normal breast epithelial cells it was subjected to further studies.
(§2) The following cell lines were used for the screening stage, obtained from the American Type Culture Collection (ATCC, Manassas, VA, USA); SK-OV-3 (HTB-77), MCF-12A (ATCC CRL-10782), MDA-MB-231 (ATCC HTB-26), HCT-116 (CCL-247), RKO (CRL-2577) and sub-culturing of the above cell lines was conducted in 75 cm^2 flasks. The old culture media was removed and discarded after assessing the confluency of the cells and the cells were rinsed with 2–3 mL diluted trypsin (1×) (trypsin/EDTA solution consists of 0.025% trypsin and 0.01% EDTA in PBS), for about 5 minutes for complete detachment. The cells were observed under the inverted microscope until the cell layer is completely dispersed. 75 cm^2 flasks were prepared and 16 mL of DMEM media for SK-OV-3, MCF-7, MDA-MB-231, (DMEM 4500 mg glucose) and RPMI media for HCT-116 were added to each flask. The cells were aspirated gently and added to the flasks. DMEM 4500 mg/L high glucose with 10% FBS, 5% streptomycin and penicillin, RPMI 1640 (prepared by adding 5% heat-inactivated FCS and 2 mm glutamine) were used. DMEM was also used for MCF-12A cells with the addition of human epidermal growth factor 20 ng/mL, insulin 0.01 mg/mL and hydrocortisone 500 ng/mL.
(§3) The synthesized compounds were screened for their anti-proliferative activity using 5-FU (F6627-1G, Sigma-Aldrich, St. Louis, MO, USA) as reference compound. A concentration of 0.4% DMSO was used in all experiment after ensuring 100% viability of the cell lines with this concentration. A 25 mM stock concentration of all compounds was prepared for further studies and analysis.
(§4) Cells were trypsinized and placed in a 15 mL Falcon tube, the cells were centrifuged for 3 min at 1000 rpm. Trypsin is decanted using a sterile pipette and then the pellet is loosened by flicking the tube few times then 5–10 mL warm DMEM or RPMI were added to the Falcon tube and the pellet is resuspended. Cell count was done next by taking 10 μL of the suspension into the cell counting slide and read under 10× cells/mL. A cell stock of 50,000 cells/mL was prepared for the 96 wells. Cells (100 μL) were added to each well using a sterile pipette each time to ensure consistency. The experiment was planned ahead of time using excel sheet, 3–6 wells were reserved as blank media while 3–6 wells for vehicle (DMSO). The plate was incubated for 24 h for compound treatment step. DMEM media was used to prepare different dilutions of the compounds. The old DMEM media was removed from the wells using sterile pipette in the hood and the media was replaced with 100 μL media with each compound. The plate was incubated for 24 h. After 24 h incubation, WST-1 reagent (Sigma) was added to each well and then the plate was incubated for 1 h before measuring the absorbance using VICTOR™ Multilabel Plate Reader (Perkin Elmer, Beaconsfield, UK). The absorbance of the colored solution can be quantified by measuring at a certain wavelength (usually between 500–600 nm), in this experiment the first reading was conducted at 540 nm and the second reading at 690 nm for the reference wavelength. The percentage of cell viability was determined as the ratio of the absorbance of the sample vs the control. Three independent experiments were performed. […] 5-Florouracil (Sigma-Aldrich, F6627-1G) was used as reference standard.

[2] = system: MCF-12a normal breast epithelial cells; experiment: WST-1 cell viability assay, MCF-12a normal cells; type: cell-based, human; details: Homo sapiens, MCF-12A
From the text: as §1, with “studies. […]” for “studies.”
(§5) Cells were trypsinized and placed in a 15 mL Falcon tube, the cells were centrifuged for 3 min at 1000 rpm. […] Cell count was done next by taking 10 μL of the suspension into the cell counting slide and read under 10× cells/mL. […] After 24 h incubation, WST-1 reagent (Sigma) was added to each well and then the plate was incubated for 1 h before measuring the absorbance using VICTOR™ Multilabel Plate Reader (Perkin Elmer, Beaconsfield, UK). The absorbance of the colored solution can be quantified by measuring at a certain wavelength (usually between 500–600 nm), in this experiment the first reading was conducted at 540 nm and the second reading at 690 nm for the reference wavelength. The percentage of cell viability was determined as the ratio of the absorbance of the sample vs the control. […]

[3] = WST-1 cell viability assay, MCF-12a normal cells; type: cell-based, human; details: human, MCF-12a normal breast epithelial cells, 2 μM, 24 h
From the text: as §1, with “studies. […]” for “studies.”
as §5

[4] = system: SK-OV-3 human ovarian carcinoma cell line; experiment: WST-1 cell viability assay, SK-OV-3; type: cell-based; details: Homo sapiens, SK-OV-3; WST-1, 24 h treatment, mean ± S.D of three independent experiments
From the text: as §1, §2, §3, §4

IC50 [1]: 7.12 ± 0.37 µM | IC50 [4]: 9.06 ± 0.24 µM
Compound: COc1ccc(-c2cc(-c3ccc(OC)c(OC)c3)c(C#N)c(OCC(=O)NNC(=O)c3ccccc3)n2)cc1OC [Compound 9a, N'-[2-(3-cyano-4,6-bis(3,4-dimethoxyphenyl)pyridin-2-yloxy)acetyl]benzohydrazide]
morphological changes (MCF-7 cells; 0.05, 0.1 and 0.5 μM): no morphological changes were observed | morphological changes (MCF-7 cells; 2, 5 and 10 μM): apoptotic features were observed | IC50 [2]: 7.5 ± 0.25 µM | viability at 24 h, 2 µM [3]: ~74%
